Measurements published in patent US10597388B2, “Pyridazinone herbicides” (FMC CORPORATION, priority 2014, dated 2020).

What was measured:
Experiment in all cases: Test C greenhouse herbicide test, pre- and postemergence
Assay type in all cases: in vivo
[1] = test system: barnyardgrass (Echinochloa crus-galli)
Text: (§1) Seeds of plant species selected from blackgrass (Alopecurus myosuroides), ryegrass, Italian (Italian ryegrass, Lolium multiflorum), wheat (winter wheat, Triticum aestivum), galium (catchweed bedstraw, Galium aparine), corn (Zea mays), large crabgrass, large (large crabgrass, Digitaria sanguinalis), foxtail, giant (giant foxtail, Setaria faberii), johnsongrass (Sorghum halepense), lambsquarters (Chenopodium album), morningglory (Ipomoea coccinea), nutsedge, yellow (yellow nutsedge, Cyperus esculentus), pigweed (Amaranthus retroflexus), ragweed (common ragweed, Ambrosia elatior), soybean (Glycine max), barnyardgrass (Echinochloa crus-galli), oilseed rape (Brassica napus), waterhemp (common waterhemp, Amaranthus rudis), and velvetleaf (Abutilon theophrasti) were planted into a blend of loam soil and sand and treated preemergence with test chemicals formulated in a non-phytotoxic solvent mixture which included a surfactant.
(§2) At the same time, plants selected from these crop and weed species and also chickweed (common chickweed, Stellaria media), kochia (Kochia scoparia), and oat, wild (wild oat, Avena fatua), were planted in pots containing Redi-Earth® planting medium (Scotts Company, 14111 Scottslawn Road, Marysville, Ohio 43041) comprising spaghnum peat moss, vermiculite, wetting agent and starter nutrients and treated with postemergence applications of test chemicals formulated in the same manner. Plants ranged in height from 2 to 18 cm (1- to 4-leaf stage) for postemergence treatments. Treated plants and controls were maintained in a greenhouse for 13 to 15 d, after which time all species were compared to controls and visually evaluated. Plant response ratings, summarized in Table C, are based on a scale of 0 to 100 where 0 is no effect and 100 is complete control. A dash (-) response means no test result.

[2] = test system: blackgrass (Alopecurus myosuroides)
Text: as §1, §2

corn (Zea mays) = test system: corn (Zea mays)
Text: as §1, §2

[3] = test system: crabgrass, large (large crabgrass, Digitaria sanguinalis)
Text: as §1, §2

[4] = test system: foxtail, giant (giant foxtail, Setaria faberii)
Text: as §1, §2

[5] = test system: galium (catchweed bedstraw, Galium aparine)
Text: as §1, §2

[6] = test system: lambsquarters (Chenopodium album)
Text: as §1, §2

[7] = test system: morningglory (Ipomoea coccinea)
Text: as §1, §2

[8] = test system: nutsedge, yellow (yellow nutsedge, Cyperus esculentus)
Text: as §1, §2

[9] = test system: pigweed (Amaranthus retroflexus)
Text: as §1, §2

[10] = test system: ryegrass, Italian (Italian ryegrass, Lolium multiflorum)
Text: as §1, §2

soybean (Glycine max) = test system: soybean (Glycine max)
Text: as §1, §2

[11] = test system: velvetleaf (Abutilon theophrasti)
Text: as §1, §2

[12] = test system: waterhemp (common waterhemp, Amaranthus rudis)
Text: as §1, §2

[13] = test system: wheat (winter wheat, Triticum aestivum)
Text: as §1, §2

[14] = Postemergence, 31 g ai/ha, 0 to 100 scale (0 no effect, 100 complete control)
[15] = Postemergence, 125 g ai/ha, scale 0 to 100, 0 is no effect, 100 is complete control
[16] = Postemergence, 250 g ai/ha, scale 0 to 100, 0 no effect, 100 complete control, 13 to 15 d
[17] = Preemergence, 31 g ai/ha, scale 0 to 100, 0 is no effect, 100 is complete control
[18] = Preemergence, 62 g ai/ha, scale 0 to 100, 0 is no effect, 100 is complete control
[19] = Preemergence, 125 g ai/ha, scale 0 to 100, 0 is no effect, 100 is complete control
[20] = Preemergence, 250 g ai/ha, scale 0 to 100, 0 no effect, 100 complete control
[21] = postemergence, 62 g ai/ha, scale 0 to 100, 0 no effect, 100 complete control

Cc1ccc2sc(C)c(-c3c(OC(=O)OC(C)C)c(C)nn(C)c3=O)c2c1 [Compound 66]
45: Plant response rating, Crabgrass, Large [3, 16]
75: Plant response rating, Crabgrass, Large [3, 17] | Plant response rating, Crabgrass, Large [3, 19] | Plant response rating, Foxtail, Giant [4, 18] | Velvetleaf plant response rating [11, 21]
85: Crabgrass, Large plant response rating [3, 20] | Foxtail, Giant plant response rating [4, 20] | Plant response rating, Lambsquarters [6, 18] | Plant response rating, Lambsquarters [6, 19] | Plant response rating, Morningglory [7, 18] | Plant response rating, Nutsedge, Yellow [8, 15] | Plant response rating, Nutsedge, Yellow [8, 16] | Plant response rating, Ryegrass, Italian [10, 15] | Plant response rating, Ryegrass, Italian [10, 16] | Plant response rating, Velvetleaf [11, 15] | Velvetleaf plant response rating [11, 20] | Plant response rating, Waterhemp [12, 17]
10: Blackgrass plant response rating [2, 14] | Plant response rating, Blackgrass [2, 17] | Plant response rating, Soybean (soybean (Glycine max); [15]) | Soybean plant response rating (soybean (Glycine max); [21])
35: Plant response rating, Barnyardgrass [1, 16] | Plant response rating, Blackgrass [2, 19] | Plant response rating, Crabgrass, Large [3, 15] | Plant response rating, Nutsedge, Yellow [8, 17] | Plant response rating, Nutsedge, Yellow [8, 18]
100: Plant response rating, Lambsquarters [6, 15] | Plant response rating, Lambsquarters [6, 16] | Lambsquarters plant response rating [6, 21] | Plant response rating, Morningglory [7, 15] | Plant response rating, Morningglory [7, 16] | Plant response rating, Pigweed [9, 15] | Plant response rating, Pigweed [9, 16] | Plant response rating, Pigweed [9, 17] | Plant response rating, Pigweed [9, 18] | Plant response rating, Pigweed [9, 19] | Pigweed plant response rating [9, 20] | Plant response rating, Waterhemp [12, 16] | Plant response rating, Waterhemp [12, 19] | Waterhemp plant response rating [12, 20]
30: Plant response rating, Barnyardgrass [1, 15] | Plant response rating, Blackgrass [2, 18] | Blackgrass plant response rating [2, 20] | Crabgrass, Large plant response rating [3, 21] | Plant response rating, Nutsedge, Yellow [8, 19]
98: Galium plant response rating [5, 20] | Lambsquarters plant response rating [6, 20] | Pigweed plant response rating [9, 21] | Waterhemp plant response rating [12, 14]
40: Plant response rating, Barnyardgrass [1, 19] | Plant response rating, Blackgrass [2, 15] | Foxtail, Giant plant response rating [4, 14] | Wheat plant response rating [13, 20]
5: Plant response rating, Corn (corn (Zea mays); [15]) | Plant response rating, Soybean (soybean (Glycine max); [16])
95: Plant response rating, Galium [5, 15] | Plant response rating, Galium [5, 16] | Plant response rating, Galium [5, 19] | Galium plant response rating [5, 21] | Morningglory plant response rating [7, 21] | Pigweed plant response rating [9, 14] | Plant response rating, Velvetleaf [11, 16]
70: Barnyardgrass plant response rating [1, 20] | Plant response rating, Foxtail, Giant [4, 17] | Nutsedge, Yellow plant response rating [8, 21] | Plant response rating, Velvetleaf [11, 19]
25: Plant response rating, Corn (corn (Zea mays); [16]) | Crabgrass, Large plant response rating [3, 14]
50: Plant response rating, Ryegrass, Italian [10, 18]
20: Plant response rating, Barnyardgrass [1, 18] | Barnyardgrass plant response rating [1, 21]
0: Plant response rating, Barnyardgrass [1, 17] | Corn plant response rating (corn (Zea mays); [14]) | Plant response rating, Corn (corn (Zea mays); [17]) | Plant response rating, Corn (corn (Zea mays); [18]) | Plant response rating, Corn (corn (Zea mays); [19]) | Corn plant response rating (corn (Zea mays); [20]) | Corn plant response rating (corn (Zea mays); [21]) | Soybean plant response rating (soybean (Glycine max); [14]) | Plant response rating, Soybean (soybean (Glycine max); [17]) | Plant response rating, Soybean (soybean (Glycine max); [18]) | Plant response rating, Soybean (soybean (Glycine max); [19]) | Soybean plant response rating (soybean (Glycine max); [20]) | Wheat plant response rating [13, 14] | Plant response rating, Wheat [13, 15] | Plant response rating, Wheat [13, 16] | Plant response rating, Wheat [13, 17] | Plant response rating, Wheat [13, 18] | Plant response rating, Wheat [13, 19] | Wheat plant response rating [13, 21]
60: Plant response rating, Blackgrass [2, 16] | Ryegrass, Italian plant response rating [10, 14] | Plant response rating, Velvetleaf [11, 18]
55: Foxtail, Giant plant response rating [4, 21] | Plant response rating, Ryegrass, Italian [10, 17] | Velvetleaf plant response rating [11, 14]
15: Barnyardgrass plant response rating [1, 14] | Blackgrass plant response rating [2, 21] | Plant response rating, Velvetleaf [11, 17]
80: Plant response rating, Foxtail, Giant [4, 16] | Plant response rating, Foxtail, Giant [4, 19] | Plant response rating, Lambsquarters [6, 17] | Plant response rating, Morningglory [7, 17] | Plant response rating, Morningglory [7, 19] | Plant response rating, Ryegrass, Italian [10, 19] | Ryegrass, Italian plant response rating [10, 21]
90: Galium plant response rating [5, 14] | Plant response rating, Galium [5, 17] | Plant response rating, Galium [5, 18] | Lambsquarters plant response rating [6, 14] | Morningglory plant response rating [7, 14] | Morningglory plant response rating [7, 20] | Ryegrass, Italian plant response rating [10, 20] | Plant response rating, Waterhemp [12, 15] | Plant response rating, Waterhemp [12, 18] | Waterhemp plant response rating [12, 21]
65: Plant response rating, Crabgrass, Large [3, 18] | Plant response rating, Foxtail, Giant [4, 15] | Nutsedge, Yellow plant response rating [8, 14] | Nutsedge, Yellow plant response rating [8, 20]
